{"source": "patent US6727038B1", "about": "“Photodefineable compositions” (Dow Global Technologies Inc., priority 1995, dated 2004)", "type_in_all_cases": "physicochemical", "key": {"[1]": {"experiment": "Solubility of bis azides in mesitylene and in DVS resin/mesitylene mixture", "conditions": "for Solubility In Mesitylene: in mesitylene at 25° C.; for Solubility In Mixture: mixture of 45 weight percent DVS resin in mesitylene at 10° C., weight percent based on total weight of mixture", "method": "The solubility of various bis azides are determined in mesitylene at 25° C. and in a mixture of 45 weight percent DVS resin in mesitylene at 10° C. The results are shown in Table I. BAC-M is 2,6-bis(4-azidobenzylidene)-4-methylcyclohexanone and differs from the bis azide of the invention by having a methyl substituent on the cyclohexanone ring instead of ethyl. BAC-P is 2,6-bis(4-azidobenzylidene)-4-n-propyl cyclohexanone and differs from the bis azide of the invention by having an n-propyl substituent on the cyclohexanone ring instead of ethyl. The weight percent in the mixture is calculated based on the total weight of mixture."}, "[2]": {"experiment": "Speed of dissolution in DVS resin/mesitylene", "conditions": "shaken at room temperature", "method": "BAC-E, up to four weight percent, is added to a mixture of 45 weight percent DVS resin in mesitylene and shaken at room temperature. The BAC-E dissolves in thirty minutes. BAC-M, at 2.0 weight percent is added to a mixture of 45 weight percent DVS resin in mesitylene and shaken at room temperature. The BAC-M requires more than eight hours of shaking to dissolve."}, "[3]": {"experiment": "Storage at -15° C., precipitate formation", "method": "A formulation containing 3.6 weight percent BAC-E in a mixture of 45 weight percent DVS resin in mesitylene is stored for more than five months at −15° C. […] A formulation containing 4.05 weight percent BAC-E in a mixture of 45 weight percent DVS resin in mesitylene is stored at −15° C. A precipitate forms in three days. A formulation containing 2.0 weight percent BAC-M in a mixture of 45 weight percent DVS resin in mesitylene is stored at −15° C. A precipitate forms in less than ten days."}}, "data": [{"smiles": "CCCC1CC(=Cc2ccc(N=[N+]=[N-])cc2)C(=O)C(=Cc2ccc(N=[N+]=[N-])cc2)C1", "note": "(stereo not shown) [BAC-P, 2,6-bis(4-azidobenzylidene)-4-n-propyl cyclohexanone]", "values": [{"measurement": "Solubility In Mesitylene", "setting": "[1]", "value": 3.5, "unit": "g/100 mL"}, {"measurement": "Solubility In Mixture", "setting": "[1]", "value": 1.7, "unit": "Wt %"}]}, {"smiles": "CCC1C/C(=C\\c2ccc(N=[N+]=[N-])cc2)C(=O)/C(=C/c2ccc(N=[N+]=[N-])cc2)C1", "note": "(stereo not shown) [BAC-E, 2,6-bis(4-azidobenzylidene)-4-ethylcyclohexanone]", "values": [{"measurement": "Solubility In Mesitylene", "setting": "[1]", "value": 14, "unit": "g/100 mL"}, {"measurement": "Solubility In Mixture", "setting": "[1]", "value": 10.4, "unit": "Wt %"}, {"measurement": "time to dissolve", "setting": "[2]; up to four weight percent in 45 weight percent DVS resin in mesitylene", "value": "thirty"}, {"measurement": "precipitate formation on storage", "setting": "[3]; 3.6 weight percent BAC-E in 45 weight percent DVS resin in mesitylene, stored more than five months at -15° C.", "value": "No precipitate forms"}]}, {"smiles": "CC1CC(=Cc2ccc(N=[N+]=[N-])cc2)C(=O)C(=Cc2ccc(N=[N+]=[N-])cc2)C1", "note": "(stereo not shown) [BAC-M, 2,6-bis(4-azidobenzylidene)-4-methylcyclohexanone]", "values": [{"measurement": "Solubility In Mesitylene", "setting": "[1]", "value": 1.7, "unit": "g/100 mL"}, {"measurement": "Solubility In Mixture", "setting": "[1]", "value": 1.0, "unit": "Wt %"}, {"measurement": "time of shaking to dissolve", "setting": "[2]; 2.0 weight percent in 45 weight percent DVS resin in mesitylene", "value": "more than eight"}, {"measurement": "time until a precipitate forms", "setting": "[3]; 2.0 weight percent BAC-M in 45 weight percent DVS resin in mesitylene, stored at -15° C.", "value": "less than ten"}]}]}
